≈ marks a conversion by molar mass, not a printed value.
Legend:
Staphylococcus aureus [1] = test: Antibacterial activity against methicillin-sensitive Staphylococcus aureus 15 after 18 hrs by CLSI broth microdilution method; type: functional; details: Staphylococcus aureus, 15, 18 h
Proteus vulgaris = test: Antibacterial activity against Proteus vulgaris ATCC 29905 after 18 hrs by CLSI broth microdilution method; type: functional; details: ATCC 29905, 18 h
Enterococcus faecalis [2] = test: Antibacterial activity against vancomycin-sensitive Enterococcus faecalis ATCC 29212 after 18 hrs by CLSI broth microdilution method; type: functional; details: ATCC 29212, 18 h
Enterococcus faecium [3] = test: Antibacterial activity against vancomycin-resistant Enterococcus faecium 12-1 after 18 hrs by CLSI broth microdilution method; type: functional; details: 12-1, 18 h
Escherichia coli [4] = test: Antibacterial activity against extended-spectrum beta-lactamase deficient Escherichia coli 1515 after 18 hrs by CLSI broth microdilution method; type: functional; details: Escherichia coli, 1515, 18 h
Enterococcus faecium [5] = test: Antibacterial activity against vancomycin-resistant Enterococcus faecium ATCC 700221 after 18 hrs by CLSI broth microdilution method; type: functional; details: ATCC 700221, 18 h
Enterobacter cloacae = test: Antibacterial activity against Enterobacter cloacae ATCC 43560 after 18 hrs by CLSI broth microdilution method; type: functional; details: ATCC 43560, 18 h
Klebsiella pneumoniae [6] = test: Antibacterial activity against extended-spectrum beta-lactamase harboring Klebsiella pneumoniae ATCC 700603 after 18 hrs by CLSI broth microdilution method; type: functional; details: Klebsiella pneumoniae, 700603, 18 h
Proteus mirabilis = test: Antibacterial activity against Proteus mirabilis 12-6 after 18 hrs by CLSI broth microdilution method; type: functional; details: 12-6, 18 h
Enterococcus faecalis [7] = test: Antibacterial activity against vancomycin-resistant Enterococcus faecalis ATCC 51299 after 18 hrs by CLSI broth microdilution method; type: functional; details: ATCC 51299, 18 h
[8] = Cytotoxicity against HEK293T cells assessed as reduction in cell viability after 48 hrs by MTS assay; type: cell-based, HEK-293T; details: human
Klebsiella pneumoniae [9] = test: Antibacterial activity against extended-spectrum beta-lactamase deficient Klebsiella pneumoniae 7 after 18 hrs by CLSI broth microdilution method; type: functional; details: Klebsiella pneumoniae, 7, 18 h
Enterococcus faecium [10] = test: Antibacterial activity against vancomycin-sensitive Enterococcus faecium 12-3 after 18 hrs by CLSI broth microdilution method; type: functional; details: 12-3, 18 h
Klebsiella aerogenes = test: Antibacterial activity against Enterobacter aerogenes ATCC 13048 after 18 hrs by CLSI broth microdilution method; type: functional; details: ATCC 13048, 18 h
Providencia rettgeri = test: Antibacterial activity against Providencia rettgeri ATCC 31052 after 18 hrs by CLSI broth microdilution method; type: functional; details: ATCC 31052, 18 h
Klebsiella pneumoniae [11] = test: Antibacterial activity against extended-spectrum beta-lactamase deficient Klebsiella pneumoniae 12-4 after 18 hrs by CLSI broth microdilution method; type: functional; details: 12-4, 18 h
[12] = tested on: Staphylococcus epidermidis; test: Antibacterial activity against methicillin-resistant Staphylococcus epidermidis 12-8 after 18 hrs by CLSI broth microdilution method; type: functional; details: 12-8, 18 h
Staphylococcus aureus [13] = test: Antibacterial activity against methicillin-sensitive Staphylococcus aureus 12-28 after 18 hrs by CLSI broth microdilution method; type: functional; details: 12-28, 18 h
[14] = tested on: Staphylococcus epidermidis; test: Antibacterial activity against methicillin-sensitive Staphylococcus epidermidis ATCC 12228 after 18 hrs by CLSI broth microdilution method; type: functional; details: ATCC 12228, 18 h
Escherichia coli [15] = test: Antibacterial activity against extended-spectrum beta-lactamase deficient Escherichia coli 12-14 after 18 hrs by CLSI broth microdilution method; type: functional; details: 12-14, 18 h
Klebsiella pneumoniae [16] = test: Antibacterial activity against new delhi metallo-beta-lactamase-1 harboring Klebsiella pneumoniae ATCC BAA-2146 after 18 hrs by CLSI broth microdilution method; type: functional; details: ATCC BAA-2146, 18 h
Escherichia coli [17] = test: Antibacterial activity against extended-spectrum beta-lactamase deficient Escherichia coli ATCC 25922 after 18 hrs by CLSI broth microdilution method; type: functional; details: ATCC 25922, 18 h
Pseudomonas aeruginosa [18] = test: Antibacterial activity against Pseudomonas aeruginosa PAO1 after 18 hrs by CLSI broth microdilution method; type: functional; details: PAO1, 18 h
Staphylococcus aureus [19] = test: Antibacterial activity against methicillin-sensitive Staphylococcus aureus ATCC 29213 after 18 hrs by CLSI broth microdilution method; type: functional; details: ATCC 29213, 18 h
Klebsiella pneumoniae [20] = test: Antibacterial activity against extended-spectrum beta-lactamase harboring Klebsiella pneumoniae 12-8 after 18 hrs by CLSI broth microdilution method; type: functional; details: 12-8, 18 h
Staphylococcus aureus [21] = test: Antibacterial activity against methicillin-resistant Staphylococcus aureus ATCC 33591 after 18 hrs by CLSI broth microdilution method; type: functional; details: ATCC 33591, 18 h
Enterococcus faecalis [22] = test: Antibacterial activity against vancomycin-sensitive Enterococcus faecalis 12-5 after 18 hrs by CLSI broth microdilution method; type: functional; details: 12-5, 18 h
Enterococcus faecalis [23] = test: Antibacterial activity against vancomycin-resistant Enterococcus faecalis 09-9 after 18 hrs by CLSI broth microdilution method; type: functional; details: 09-9, 18 h
Serratia marcescens = test: Antibacterial activity against Serratia marcescens ATCC 21074 after 18 hrs by CLSI broth microdilution method; type: functional; details: ATCC 21074, 18 h
Escherichia coli [24] = test: Antibacterial activity against extended-spectrum beta-lactamase harboring Escherichia coli 12-15 after 18 hrs by CLSI broth microdilution method; type: functional; details: 12-15, 18 h
Staphylococcus aureus [25] = test: Antibacterial activity against methicillin-resistant Staphylococcus aureus 12-33 after 18 hrs by CLSI broth microdilution method; type: functional; details: 12-33, 18 h
[26] = tested on: Stenotrophomonas maltophilia; test: Antibacterial activity against Stenotrophomonas maltophilia ATCC 13636 after 18 hrs by CLSI broth microdilution method; type: functional; details: ATCC 13636, 18 h
Citrobacter freundii = test: Antibacterial activity against Citrobacter freundii ATCC 43864 after 18 hrs by CLSI broth microdilution method; type: functional; details: ATCC 43864, 18 h
Pseudomonas aeruginosa [27] = test: Antibacterial activity against Pseudomonas aeruginosa 12-16 after 18 hrs by CLSI broth microdilution method; type: functional; details: 12-16, 18 h
[28] = tested on: Staphylococcus epidermidis; test: Antibacterial activity against methicillin-sensitive Staphylococcus epidermidis 12-6 after 18 hrs by CLSI broth microdilution method; type: functional; details: 12-6, 18 h
[29] = tested on: Acinetobacter calcoaceticus; test: Antibacterial activity against Acinetobacter calcoaceticus ATCC 19606 after 18 hrs by CLSI broth microdilution method; type: functional; details: ATCC 19606, 18 h
Pseudomonas aeruginosa [30] = test: Antibacterial activity against Pseudomonas aeruginosa ATCC 27853 after 18 hrs by CLSI broth microdilution method; type: functional; details: ATCC 27853, 18 h

`CCC(C)NC(=N)c1ccc2cc(-c3cncc(-c4cc5ccc(C(=N)NC(C)CC)cc5[nH]4)c3)[nH]c2c1` (configuration not stated) gave an MIC (Staphylococcus aureus [1]) of 16 µg/mL (≈ 31.6 µM), an MIC (Proteus vulgaris) greater than 64 µg/mL and an MIC (Enterococcus faecalis [2]) greater than 64 µg/mL. It also gave an MIC (Enterococcus faecium [3]) of 64 µg/mL (≈ 127 µM), an MIC (Escherichia coli [4]) greater than 64 µg/mL and an MIC (Enterococcus faecium [5]) greater than 64 µg/mL. The MIC (Enterobacter cloacae) was greater than 64 µg/mL, the MIC (Klebsiella pneumoniae [6]) was greater than 64 µg/mL and the MIC (Proteus mirabilis) was greater than 64 µg/mL. For the same compound, the MIC (Enterococcus faecalis [7]) was greater than 64 µg/mL, the CC50 at 48 h [8] was 22.8 µg/mL (≈ 45.1 µM) and the MIC (Klebsiella pneumoniae [9]) was greater than 64 µg/mL. For the same compound, the MIC (Enterococcus faecium [10]) was greater than 64 µg/mL, the MIC (Klebsiella aerogenes) was greater than 64 µg/mL and the MIC (Providencia rettgeri) was greater than 64 µg/mL. For the same compound, the MIC (Klebsiella pneumoniae [11]) was greater than 64 µg/mL, the MIC [12] was 8 µg/mL (≈ 15.8 µM) and the MIC (Staphylococcus aureus [13]) was 16 µg/mL (≈ 31.6 µM). For the same compound, the MIC [14] was 8 µg/mL (≈ 15.8 µM), the MIC (Escherichia coli [15]) was greater than 64 µg/mL and the MIC (Klebsiella pneumoniae [16]) was greater than 64 µg/mL. The MIC (Escherichia coli [17]) was greater than 64 µg/mL, the MIC (Pseudomonas aeruginosa [18]) was greater than 64 µg/mL and the MIC (Staphylococcus aureus [19]) was 8 µg/mL (≈ 15.8 µM). For the same compound, the MIC (Klebsiella pneumoniae [20]) was greater than 64 µg/mL, the MIC (Staphylococcus aureus [21]) was 8 µg/mL (≈ 15.8 µM) and the MIC (Enterococcus faecalis [22]) was greater than 64 µg/mL. It also gave an MIC (Enterococcus faecalis [23]) greater than 64 µg/mL, an MIC (Serratia marcescens) greater than 64 µg/mL and an MIC (Escherichia coli [24]) greater than 64 µg/mL. It also gave an MIC (Staphylococcus aureus [25]) of 16 µg/mL (≈ 31.6 µM), an MIC [26] greater than 64 µg/mL and an MIC (Citrobacter freundii) greater than 64 µg/mL. It also gave an MIC (Pseudomonas aeruginosa [27]) greater than 64 µg/mL, an MIC [28] of 8 µg/mL (≈ 15.8 µM) and an MIC [29] greater than 64 µg/mL. The MIC (Pseudomonas aeruginosa [30]) was greater than 64 µg/mL.
